# In patent EP3177293B1, “METHOD OF TREATING SKIN CONDITIONS” (Astrazeneca AB, priority 2014, dated 2015):
# Read-outs that look alike come from different tables or passages of the source.
# Assays:
# mouse DGAT1 = target: T1, mouse DGAT1 (Mus musculus, UniProt Q9Z2A7); experiment: in vitro recombinant DGAT1 enzyme assay (mouse); assay type: biochemical
# T1 sequence (Q9Z2A7 1-498): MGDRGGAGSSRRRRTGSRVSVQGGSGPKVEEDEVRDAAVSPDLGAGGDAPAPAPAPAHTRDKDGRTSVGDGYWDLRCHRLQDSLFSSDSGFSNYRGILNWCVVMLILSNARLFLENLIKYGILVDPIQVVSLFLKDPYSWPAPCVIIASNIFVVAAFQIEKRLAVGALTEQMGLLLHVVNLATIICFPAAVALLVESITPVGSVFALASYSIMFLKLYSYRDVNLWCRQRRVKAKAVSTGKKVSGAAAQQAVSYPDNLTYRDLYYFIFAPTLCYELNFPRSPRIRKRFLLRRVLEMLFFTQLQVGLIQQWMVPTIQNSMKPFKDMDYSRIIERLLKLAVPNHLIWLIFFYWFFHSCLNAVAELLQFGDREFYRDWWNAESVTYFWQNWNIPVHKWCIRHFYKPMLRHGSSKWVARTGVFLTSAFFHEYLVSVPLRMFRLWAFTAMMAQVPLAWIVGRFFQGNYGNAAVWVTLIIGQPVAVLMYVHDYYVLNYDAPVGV
# dog DGAT1 = target: T2, dog DGAT1 (Canis lupus familiaris, UniProt A0A8I3NFS1); experiment: in vitro recombinant DGAT1 enzyme assay (dog); assay type: biochemical
# T2 sequence (A0A8I3NFS1 67-492): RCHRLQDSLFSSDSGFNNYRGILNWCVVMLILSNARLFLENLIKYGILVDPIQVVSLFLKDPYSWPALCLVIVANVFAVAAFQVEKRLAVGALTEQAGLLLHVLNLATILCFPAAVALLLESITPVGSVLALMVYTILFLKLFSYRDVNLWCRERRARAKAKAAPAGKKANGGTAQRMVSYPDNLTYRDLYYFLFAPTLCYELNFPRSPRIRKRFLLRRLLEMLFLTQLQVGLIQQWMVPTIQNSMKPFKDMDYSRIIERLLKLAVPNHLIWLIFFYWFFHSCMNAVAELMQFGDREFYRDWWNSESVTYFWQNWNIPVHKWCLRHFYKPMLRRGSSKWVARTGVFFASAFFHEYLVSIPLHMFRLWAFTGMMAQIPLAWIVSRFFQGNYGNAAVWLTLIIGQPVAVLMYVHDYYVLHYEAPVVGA
# human DGAT1 = target: T3, human DGAT1 (Homo sapiens, UniProt O75907); experiment: in vitro recombinant DGAT1 enzyme assay (human); assay type: biochemical
# T3 sequence (O75907 1-488): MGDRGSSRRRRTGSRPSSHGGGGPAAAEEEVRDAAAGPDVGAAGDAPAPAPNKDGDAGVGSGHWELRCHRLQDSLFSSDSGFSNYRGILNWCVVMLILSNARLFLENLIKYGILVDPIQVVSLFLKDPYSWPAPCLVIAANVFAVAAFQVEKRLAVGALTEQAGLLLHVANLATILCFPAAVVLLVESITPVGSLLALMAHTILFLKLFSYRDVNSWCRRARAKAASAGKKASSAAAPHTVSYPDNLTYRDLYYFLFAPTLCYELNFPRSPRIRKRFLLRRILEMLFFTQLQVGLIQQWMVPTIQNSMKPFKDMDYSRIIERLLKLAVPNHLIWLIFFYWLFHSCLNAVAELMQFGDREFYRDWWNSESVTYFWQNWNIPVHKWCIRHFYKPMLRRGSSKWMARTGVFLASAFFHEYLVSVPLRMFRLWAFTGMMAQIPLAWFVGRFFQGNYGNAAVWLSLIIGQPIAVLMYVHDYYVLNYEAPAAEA
# human ACAT2 = target: T4, human ACAT2 (Homo sapiens, UniProt O75908); experiment: ACAT2 enzyme inhibition; assay type: biochemical
# T4 sequence (O75908 1-522): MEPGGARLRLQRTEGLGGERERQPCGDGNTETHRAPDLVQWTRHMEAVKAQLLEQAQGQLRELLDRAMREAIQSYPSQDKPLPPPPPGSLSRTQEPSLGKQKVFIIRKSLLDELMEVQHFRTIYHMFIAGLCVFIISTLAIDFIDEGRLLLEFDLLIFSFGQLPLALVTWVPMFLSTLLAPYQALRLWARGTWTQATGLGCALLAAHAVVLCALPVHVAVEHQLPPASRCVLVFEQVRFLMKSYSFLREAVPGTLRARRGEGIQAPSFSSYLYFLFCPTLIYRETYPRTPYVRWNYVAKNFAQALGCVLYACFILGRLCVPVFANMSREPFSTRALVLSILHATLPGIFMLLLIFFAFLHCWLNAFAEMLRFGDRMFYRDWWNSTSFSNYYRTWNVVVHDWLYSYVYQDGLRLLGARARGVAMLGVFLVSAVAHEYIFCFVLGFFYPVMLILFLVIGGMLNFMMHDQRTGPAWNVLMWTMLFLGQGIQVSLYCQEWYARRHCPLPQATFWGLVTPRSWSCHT
# human DGAT2 = target: T5, human DGAT2 (Homo sapiens, UniProt Q96PD7); experiment: DGAT2 activity; assay type: biochemical
# T5 sequence (Q96PD7 1-388): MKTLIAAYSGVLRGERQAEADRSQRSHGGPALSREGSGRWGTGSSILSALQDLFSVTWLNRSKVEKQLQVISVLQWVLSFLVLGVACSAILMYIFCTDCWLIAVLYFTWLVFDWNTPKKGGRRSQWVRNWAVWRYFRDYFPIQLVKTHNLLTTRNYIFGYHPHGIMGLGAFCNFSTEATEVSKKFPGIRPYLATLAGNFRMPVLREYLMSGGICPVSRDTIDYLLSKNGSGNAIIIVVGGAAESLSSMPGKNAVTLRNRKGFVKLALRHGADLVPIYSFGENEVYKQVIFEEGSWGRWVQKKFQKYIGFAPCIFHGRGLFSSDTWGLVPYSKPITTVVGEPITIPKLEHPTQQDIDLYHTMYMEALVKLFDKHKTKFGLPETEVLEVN
# [1] = toxicokinetic analysis of plasma exposure in mice, oral dosing; assay type: in vivo, mice (Crl:CD-1(ICR)); conditions: for Cmax as multiple of mouse microsomal DGAT1 enzyme IC50 / Cmin as multiple of DGAT1 IC50: oral once daily
# Source text: (§1) Doses and frequency of dosing were selected following consideration of species specific tolerability and pharmacokinetic parameters. Doses predicted to result in exposures which were likely to cause maximum DGAT1 inhibition without resulting in intolerability were chosen as the highest dose level.
# The mice were killed by administration of halothane.
# sebaceous glands [2] = system: sebaceous glands
# Source text: Up to 32 (16 male and 16 female) mice (Crl:CD-1(ICR)) per dose group were obtained from the AstraZeneca breeding unit (Alderley Park, Macclesfield, UK). The animals, aged 7-8 weeks, were allowed to acclimatise for at least one week, were multiple-housed, sexes separately, up to 5/cage. Water from the site drinking water supply and RM1 (E) SQC pelleted diet supplied by Special Diets Services Ltd., England, was freely available. Nesting material (Tapvei Aspen Chips, Tapvei small aspen bricks, Finland, sizzle nests and paper shavings, and polycarbonate tunnels, Datesand,UK) was provided. Animals were terminated for scheduled necropsy on the day after the final dose. The mice were killed by administration of halothane.
# (§2) For pharmacokinetic analysis, blood samples were collected into lithium heparin tubes from animals on either the first or penultimate day of the study. Plasma was separated by centrifugation at 4°C and stored for analysis at -20°C. […] Exposure data are presented as FDM (free drug concentration in blood plasma required to inhibit the microsomal DGAT1 enzyme by 50%) and are mean data for each dose level. […] At the end of each experiment, animals were terminally anaesthetised and representative samples of skin (mammary gland region for mice, abdominal region for dogs) were taken at necropsy, placed in 10% buffered formalin and processed for histopathological assessment. Conventional processing into wax and haematoxylin and eosin staining of sections preceded their light microscopic examination.
# (§3) Light microscopic examination and histology scoring was performed by a certified pathologist and findings were peer reviewed by a second pathologist. Each section of skin contained from 15 - 25 hair follicles in different stages of differentiation with associated sebaceous glands that were cut in multiple planes. […] Therefore, assessment of sebaceous cell/gland atrophy was based on their appearances irrespective of the stage of differentiation of the associated hair follicle in all instances.
# [3] = toxicokinetic analysis of plasma exposure in dogs, oral dosing; assay type: in vivo, beagle dogs
# Source text: as §1
# sebaceous glands [4] = system: sebaceous glands; remark: listed apart in the source
# Protocol: Up to 8 (4 male and 4 female) beagle dogs per treatment group were obtained from the AstraZeneca breeding unit (Alderley Park, Macclesfield, UK). […] All animals were observed daily for clinical signs of toxicity. Body weight and food consumption was measured daily prior to dosing. Animals were single-penned, with access to an exercise area with others of the same sex and group, for the major part of each day. Animals had free access to water from the site drinking water supply. A set weight of SDS Dog-D3 (E) SQC, supplied by Special Diet Services Ltd, England, was provided daily, in the afternoon, access being allowed for up to approximately 2 hours. Toys (e.g., bones) were provided for additional environmental enhancement. Animals were terminated for scheduled necropsy on the day after the final dose. The dogs were killed by intravenous administration of sodium pentobarbitone and then exsanguinated.
# as §2, §3
# skin = conditions: clinical trials of short duration (Denison et al. 2013); cited from earlier work
# [5] = 1mg/kg/day dose group, 180 day study
# [6] = 600 mg/kg/day dose group, 7 day study
# [7] = mouse, 1 month and 6 month studies
compound,measurement,setting,value
"Cc1nc(C)c(-c2ccc([C@H]3CC[C@H](CC(=O)O)CC3)cc2)nc1C(N)=O [2-((1R,4R)-4-(4-(6-carbamoyl-3,5-dimethylpyrazin-2-yl)phenyl)cyclohexyl)acetic acid]",IC50,mouse DGAT1,~100 nM
same,IC50,dog DGAT1,~60 nM
same,IC50,human DGAT1,~80 nM
same,IC50,human ACAT2,> 35 µM
same,activity against human DGAT2,human DGAT2,No activity
same,Cmax as multiple of mouse microsomal DGAT1 enzyme IC50,[1]; [5],4 x IC50
same,Cmin as multiple of DGAT1 IC50,[1]; [5],1 x IC50
same,Cmax as multiple of mouse microsomal DGAT1 enzyme IC50,[1]; [6],1581 x IC50
same,Cmin as multiple of DGAT1 IC50,[1]; [6],766 x IC50
same,sex difference in exposure,[1]; male versus female mice,1.5 - 3 x
same,exposure at Cmin at which additional skin findings occurred,"sebaceous glands [2]; Crl:CD-1(ICR), mouse, in vivo, 6 months",≥ 7 x FDM
same,skin photomicrograph appearance of sebaceous glands (Figure 5 B),"sebaceous glands [2]; male mouse, 300 mg/kg/day for 6 months",substantial atrophy of sebaceous glands with much reduced sebum and mild hyperkeratosis
same,reversibility of sebaceous gland atrophy,"sebaceous glands [2]; mice, 4 week drug-free period after 1 month of treatment",complete reversibility
same,group mean severity of sebaceous gland atrophy,"sebaceous glands [2]; mice, after 1 month (28 days) of dosing",minimal to mild
same,group mean severity of sebaceous gland atrophy,"sebaceous glands [2]; mice, after 6 months (180 days) of dosing",minimal to moderate
same,sebaceous gland atrophy,"sebaceous glands [2]; mice, high doses for up to 7 days",absent
same,duration of DGAT1 inhibition required for microscopical detection of sebaceous gland atrophy,sebaceous glands [2]; mouse,more than 7 days
same,skin photomicrograph appearance of sebaceous glands (Figure 1 B),"sebaceous glands [2]; mouse, 300 mg/kg/day for 28 days",severely atrophic sebaceous glands with substantially reduced sebum
same,skin photomicrograph appearance of sebaceous glands (Figure 1 C),"sebaceous glands [2]; mouse, 300 mg/kg/day for 28 days followed by drug free recovery period of 28 days",normal appearance of sebum filled sebaceous glands
same,exposure at Cmin with mild to moderate sebaceous gland atrophy,sebaceous glands [2]; [7],46 x FDM
same,exposure at Cmin with minimal to mild sebaceous gland atrophy,sebaceous glands [2]; [7],7 - 40 x FDM
same,exposure at Cmax at which additional skin findings occurred,"sebaceous glands [2]; mouse, in vivo",at least 50 x FDM
same,histopathological findings in the skin,"sebaceous glands [2]; mouse, in vivo",restricted to sebaceous gland atrophy only
same,significant increase in inflammation in the skin,"sebaceous glands [2]; mouse, in vivo",not seen
same,skin findings associated with sebaceous gland atrophy,"sebaceous glands [2]; mouse, in vivo","epidermal hyperplasia, occasional hair follicle atrophy, as well as in-life observation of hair-loss and skin lesions"
same,tolerability,"sebaceous glands [2]; mouse, in vivo",well tolerated
same,Cmax as multiple of dog microsomal DGAT1 enzyme IC50,"[3]; 4 mg/kg/day dose group, 3 month study",10 x IC50
same,Cmin as multiple of DGAT1 IC50,"[3]; 4 mg/kg/day dose group, 3 months study",1 x IC50
same,Cmin as multiple of DGAT1 IC50,"[3]; 1000 mg/kg/day dose group, 7 day study",54 x IC50
same,Cmax as multiple of dog microsomal DGAT1 enzyme IC50,"[3]; 1000 mg/kg/day dose group, 'in the same study' (3 month study as printed)",292 x IC50
same,duration of DGAT1 inhibition required for microscopical detection of sebaceous gland atrophy,sebaceous glands [4]; dog,more than 7 days
same,exposure at Cmin with mild to moderate sebaceous gland atrophy,sebaceous glands [4]; dog,> 36 x FDM
same,exposure at Cmin with minimal to mild sebaceous gland atrophy,sebaceous glands [4]; dog,7-54 x FDM
same,skin photomicrograph appearance of sebaceous glands (Figure 6 B),"sebaceous glands [4]; dog, 100 mg/kg/day for 6 months",atrophic sebaceous glands which contain little sebum
same,"additional skin changes (occasional hair follicle atrophy, hair-loss and skin lesions)","sebaceous glands [4]; dog, in vivo",not observed
same,hyperkeratosis of the epithelium covering the infundibula of hair follicles,"sebaceous glands [4]; dog, in vivo",minimal hyperkeratosis
same,significant increase in inflammation in the skin,"sebaceous glands [4]; dog, in vivo",not seen
same,tolerability,"sebaceous glands [4]; dog, in vivo",well tolerated
same,sebaceous gland atrophy,sebaceous glands [4]; dogs dosed for up to 7 days,absent
same,reversibility of sebaceous gland atrophy,"sebaceous glands [4]; dogs, 4 week drug-free period after 3 months of dosing",complete reversibility
same,group mean severity of sebaceous gland atrophy,"sebaceous glands [4]; dogs, after 3 months (90 days) of dosing",minimal to moderate
same,group mean severity of sebaceous gland atrophy,"sebaceous glands [4]; dogs, after 14 days of dosing",minimal to mild
same,group mean severity of sebaceous gland atrophy,"sebaceous glands [4]; dogs, highest dose group after 6 months (180 days)",moderate
same,effects on the skin of healthy volunteers,skin,no effects
